Measured values published in US7030060B1, “Rest-breaking composition and use thereof” (Akzo Nobel N.V., priority 1999, dated 2006).

Test system: Golden Delicious apples
Assay: Usability of the organic nitrogen compound for rest-breaking
Type: in vivo
Conditions: South Africa
Text: It is to be understood that not all compounds may work on all deciduous fruit species in all orchards.

## choline borate
  Usability on Golden Delicious apples: could not be used
